Values of other authors in the CATMoS acute toxicity set (Mansouri et al. 2021).
“And” between values parts separate entries of the source, which are not always exact repeats. Equal values may be shown once.

Experiment: rat acute oral toxicity
Details: in vivo
From the text: […]The data set underlying the modeling effort for this project was initially compiled by NICEATM and U.S. EPA’s CCTE. Briefly, LD50 data were collected from rat acute oral systemic toxicity tests, including limit tests, ranges/confidence intervals, and discrete LD50 values. The full data set included 21,200 LD50 entries for 15,688 substances. […] Data were reviewed to ensure that LD50 values with obvious errors in the extracted data such as unit conversion errors (e.g., comma and decimal separator misplacements) were either fixed or removed. After this review, 16,209 LD50 values remained. Many of the chemicals represented had multiple LD50 entries, requiring that a single representative value per Chemical Abstracts Service Registry Number (CASRN) identifier be defined to facilitate modeling efforts. Based on ATWG feedback and to define the representative LD50 as a protective value while accounting for the distribution across multiple LD50s, the median of the lowest quartile was computed using only discrete LD50 values (omitting limit test data and range and confidence interval data). A detailed summary of the data compilation is available online on the NICEATM webpage dedicated to the collaborative modeling project (NTP 2020).
[…][…] For categorical designations, limit test and range/confidence interval LD50 data were integrated wherever possible. As such, the number of chemicals with end point values/calls varies across the modeling end points (Table 3) based on whether chemicals had representative LD50 values and/or other data. If a chemical had both, the representative value was used to determine categorical calls rather than limit test data. Some data were useable only for certain end points and categories depending on the thresholds. For example, ranges that spanned multiple hazard categories were considered only for the binary (very toxic/nontoxic) end points and omitted from rendering a determination for hazard category assignment.
[…]The final data set comprising 11,992 chemicals was split into training and evaluation sets […], respectively. This process was performed semirandomly by ordering chemicals based on the five end points (categorical and continuous LD50 values) and partitioning every fourth record into the evaluation set accordingly. This approach was taken to ensure an equivalent distribution of the LD50 values and the different hazard categories between the training and the evaluation sets without supervised sampling of the chemicals based on structures (Figure 1A). The sources of the chemical structures were also kept equivalent between the two sets, with chemical structures obtained from DSSTox, being the highest quality, representing over 75% of each set (Figure 1B).

| SMILES | LD50 |
| --- | --- |
| COc1ccc([N+](=O)[O-])cc1Cl | 1180 mg/kg |
| O=C1NCCCN1Cc1ccc(Cl)c(Cl)c1 | 815 mg/kg |
| CC(C)(Oc1ccc(Cl)cc1)C(=O)OCCCOC(=O)C(C)(C)Oc1ccc(Cl)cc1 | 7300 mg/kg |
| COc1ccccc1C1=CCN(CC=Cc2ccc3c(c2)CCC(=O)N3)CC1 | 500 mg/kg |
| C=Cc1ccc(Cl)cc1 | 5200 mg/kg |
| COP(=S)(OC)OC1CCCCC1 | 2900 mg/kg |
| N#Cc1cc2[nH]c(C(F)(F)F)nc2c(Cl)c1Cl | 3960 mg/kg |
| CC(C)N(CCC(C(N)=O)(c1ccccc1)c1ccccn1)C(C)C (stereo not drawn) | 880 mg/kg and 333 mg/kg |
| Cc1ccccc1C(OC1CC2CCC(C1)N2C)c1ccccc1 (stereo not drawn) | 400 mg/kg |
| CO[C@@]1(NC(=O)CSCC#N)C(=O)N2C(C(=O)O)=C(CSc3nnnn3C)CS[C@@H]21 | 3200 mg/kg |
| CCCC(C(=O)c1ccc(C)cc1)N1CCCC1 (stereo not drawn) | 620 mg/kg |
| CCOP(=O)(O)CCCl | 1250 mg/kg |
| CCOP(=S)(OCC)Oc1ccccc1[N+](=O)[O-] | 25 mg/kg |
| O[C@@H]1CO[C@H]2[C@@H]1OC[C@@H]2O | 24200 mg/kg |
| CC(C)CCCCCCCCCCOCCCN | 300 mg/kg |
| CC(C)c1ccc2c(c1)CC[C@H]1[C@](C)(C(=O)O)CCC[C@]21C | 1710 mg/kg |
| CCN(CC)CCOc1nn(-c2cccc(C(F)(F)F)c2)c2ncccc12 | 1200 mg/kg |
| Cc1ccccc1NC(=S)NN | 200 mg/kg |
| O=C(O)Cc1ccccc1Nc1c(Cl)cc(O)cc1Cl | 190 mg/kg |
| Cc1ccc(O)c(-n2nc3ccccc3n2)c1 | 10000 mg/kg |
| CC(C)c1ccc(N)cc1 | 985 mg/kg |
| O=C(O)c1ccccc1Nc1cccc(C(F)(F)F)c1 | 249 mg/kg |
| CC(C)NC(=O)N1CC(=O)N(c2cc(Cl)cc(Cl)c2)C1=O | 3500 mg/kg |
| CC(C)COP(=S)(S)OCC(C)C | 3000 mg/kg |
| N#CCNCC#N | 710 mg/kg |
| CCCCC(CC)COCCCN (stereo not drawn) | 320 mg/kg |

| SMILES | LD50 |
| --- | --- |
| CCS(=O)CCSP(=S)(OC)OC (stereo not drawn) | 100 mg/kg |
| OCC1CCCCO1 (stereo not drawn) | 3730 mg/kg |
| O=CNc1ccc(Cl)cc1 | 750 mg/kg |
| CS(=O)(=O)OCCN(CCOS(C)(=O)=O)S(C)(=O)=O | 300 mg/kg |
| Cc1ccc(N)cc1Br | 180 mg/kg |
| Nc1ccccc1C(=O)O | 5410 mg/kg |
| CCOC(=O)C1=CN(C(=O)c2ccccc2)C2CCCC(C)N2C1=O (stereo not drawn) | 1640 mg/kg |
| C1CCC(C(CC2CCCCN2)C2CCCCC2)CC1 (stereo not drawn) | 2150 mg/kg |
| Fc1cc(F)c2nc(C(F)(F)F)[nH]c2c1 | 2.49 mg/kg |
| CC1OCN=C(c2ccccc2)S1 (stereo not drawn) | 655 mg/kg |
| OC(CCN1CCCCC1)(c1ccccc1)C1CCCCC1 (stereo not drawn) | 1630 mg/kg |
| O=C(O)Cc1ccccc1Oc1c(Cl)c(Cl)cc(Cl)c1Cl | 303 mg/kg |
| COc1ccc(O)cc1 | 1600 mg/kg |
| CCCN(CCC)c1c([N+](=O)[O-])cc(C(C)=O)cc1[N+](=O)[O-] | 750 mg/kg |
| CCCCCC(=O)c1ccc(N)cc1 | 216 mg/kg |
| CC(C(=O)O)c1ccc2c(c1)CC(=O)c1ccccc1S2 (stereo not drawn) | 425 mg/kg |
| CCN(CC)CCOc1ccc2nc(N(C)C)sc2c1 | 880 mg/kg |
| Cc1ccn(C(=O)NCCCCCCNC(=O)n2ccc(C)n2)n1 | 4850 mg/kg |
| C=CCOC(=O)Cc1ccccc1 | 650 mg/kg |
| FC(F)(F)c1cccc(OCC2CNC(=S)O2)c1 (stereo not drawn) | 524 mg/kg |
| Cc1cncc(CN2CCC(=C3c4ccc(Cl)cc4CCc4cccnc43)CC2)c1 | 1000 mg/kg |
| CN(C)CCN1C(=O)c2ccccc2Nc2cc(Cl)ccc21 | 242 mg/kg |
| COP(=S)(OC)Oc1ccc(Sc2ccc(OP(=S)(OC)OC)c(C)c2)cc1C | 250 mg/kg |
| CCOC(=S)c1ccc2c(c1)OCO2 | 1160 mg/kg |
| O=C(O)CCC(=O)OC[C@@H](NC(=O)C(Cl)Cl)[C@H](O)c1ccc([N+](=O)[O-])cc1 | 8300 mg/kg |
| Nc1cc2c(cc1C1CCCCC1)CCC2C(=O)O (stereo not drawn) | 54 mg/kg |

| SMILES | LD50 |
| --- | --- |
| NC(=O)C1c2ccccc2CCc2ccccc21 | 2400 mg/kg |
| O=[N+]([O-])c1ccc(Oc2ccc(C(F)(F)F)cc2Cl)cc1 | 1000 mg/kg |
| O=S(=O)(O)c1cccc2c(/N=N/c3ccc(/N=N/c4ccc(Nc5ccccc5)c5c(S(=O)(=O)O)cccc45)c4ccccc34)cccc12 | 15000 mg/kg |
| CN(C)C(=O)Oc1cccc([N+](C)(C)C)c1 | 51 mg/kg |
| CN(N=O)C(N)=O | 110 mg/kg |
| O=S(=O)(O)Oc1ccc(C(c2ccc(OS(=O)(=O)O)cc2)c2ccccn2)cc1 | 11300 mg/kg |
| CC1=CCC(C(C)C)=CC1 | 3650 mg/kg |
| Clc1ccc(C(OCCN2CCCCC2)c2ccccc2)cc1 (stereo not drawn) | 1990 mg/kg |
| CCCC(=O)OCN(C)N=O | 800 mg/kg |
| Cc1cc(C)n(SC(Cl)(Cl)Cl)n1 | 570 mg/kg |
| O=NN(CCF)C(=O)NC1CCCCC1 | 18.5 mg/kg |
| CS(=O)C(C)(C)C(N)=O (stereo not drawn) | 16000 mg/kg |
| Cc1cccc(CN(C)N=O)c1 | 600 mg/kg |
| CC[C@@H](C(=O)[C@@H](C)[C@@H](O)[C@H](C)CCc1ccc(C)c(O)c1C(=O)O)[C@H]1O[C@](CC)([C@H]2CC[C@](O)(CC)[C@H](C)O2)C[C@@H]1C | 122 mg/kg |
| Nc1c(Cl)c(Cl)c2[nH]c(C(F)(F)F)nc2c1Cl | 23 mg/kg |
| O=C(Cl)OCc1ccccc1 | 3000 mg/kg |
| Cc1ccccc1N=NN(C)C | 350 mg/kg |
| Cc1ccc(C(C)C)cc1 | 4750 mg/kg |
| CCCCOCC(O)COc1ccccc1 (stereo not drawn) | 2370 mg/kg |
| CN(C)CCN(Cc1ccc(Cl)cc1)c1ccccn1 | 920 mg/kg |
| CC1CO1 (stereo not drawn) | 380 mg/kg |
| CNC(=O)Oc1cccc2c1OC(C)(C)C2O (stereo not drawn) | 18 mg/kg |
| CCCCCCCCCCCCCCCCOCCOCCOCCOCCOCCOCCOCCOCCOCCOCCOCCOCCOCCOCCOCCOCCOCCOCCOCCOCCO | 2500 mg/kg |
| S=c1[nH]c2cc(Cl)ccc2o1 | 1000 mg/kg |
| COC(=O)CNC[P@](=O)(O)Oc1ccccc1 | 4100 mg/kg |
| C=COC(=O)C=CC | 6500 mg/kg |

| SMILES | LD50 |
| --- | --- |
| O=CN(c1ncnc2c1ncn2CC1CC1)C1CC1 | 500 mg/kg |
| CCO[Si](CCCS)(OCC)OCC | 6110 mg/kg |
| CCC1(C)C(=O)N(CC2CO2)C(=O)N1CC1CO1 (stereo not drawn) | 250 mg/kg |
| CCC[N+](=O)[O-] | 455 mg/kg |
| O=[N+]([O-])c1ccccc1C1OCC(CCl)O1 (stereo not drawn) | 65 mg/kg |
| O=C1NC(=O)C2C3C(C(O)(c4ccccc4)c4ccccn4)=CC(C3=C(c3ccccc3)c3ccccn3)C12 (stereo not drawn) | 6 mg/kg |
| CCCCC[C@H](O)/C=C/[C@@H]1[C@@H](C/C=C\CCCC(=O)O)[C@@H](O)C[C@H]1O | 1170 mg/kg |
| CC(=O)Nc1ccc(S(=O)(=O)Nc2cc(C)on2)cc1 | 8400 mg/kg |
| NCCCNCCNCCCN | 1200 mg/kg |
| CCC(C(=O)O)c1ccc(N2Cc3ccccc3C2=O)cc1 (stereo not drawn) | 373 mg/kg |
| CCCCC(CC)COC(=O)c1ccccc1C(=O)OCC(CC)CCCC (stereo not drawn) | 30000 mg/kg |
| CN(CCn1cnc2c1c(=O)n(C)c(=O)n2C)C1CCCCC1 | 2880 mg/kg |
| CC(C)CC(C)OC(=O)/C=C\C(=O)OC(C)CC(C)C (stereo not drawn) | 7340 mg/kg |
| CC(=O)OC(C)(C)CCc1ccccc1 | 4850 mg/kg |
| COP(=O)(OC)Sc1ccc(Cl)cc1 | 100 mg/kg |
| CC1(C)CC(NCCC(=O)NC2CC(C)(C)NC(C)(C)C2)CC(C)(C)N1 | 4180 mg/kg |
| O=C(O)CCCc1ccc(N(CCCl)CCCl)cc1 | 76 mg/kg |
| CCBr | 1350 mg/kg |
| CCCCNP(=S)(OCC)Sc1ccccc1 (stereo not drawn) | 300 mg/kg |
| CNC(=O)Oc1ccccc1C(C)C | 450 mg/kg |
| CCOP(=O)(OCC)SCn1nc(C)ccc1=O | 6.5 mg/kg |
| FC(F)(F)c1nc2c(Cl)c(Br)c(Cl)c(Br)c2[nH]1 | 3.43 mg/kg |
| O=C(Nc1cc(F)ccc1F)NC1CC1 | 152 mg/kg |
| CCSC(=O)NC1CCCCC1 | 2300 mg/kg |
| CN(C)S(=O)(=O)CCCCNC(=O)N(CCCl)N=O | 250 mg/kg |
